Patent publication EP0508792A1, “Anti-tumor and anti-psoriatic agents” (SCHERING CORPORATION, priority 1991, dated 1992)

test system: Normal Human Keratinocytes (NHEK); experiment: 3H thymidine uptake in normal human keratinocytes (NHEK); assay type: cell-based; conditions: Homo sapiens, 20 h; dose response study, 3H thymidine uptake in NHEK; read-out: IC₅₀
Experimental: ^3H Thymidine Uptake in Normal Human Keratinocytes (NHEK): Effects of Compounds of the Invention
Second passage NHEK cells grown in MCDB 153 media with a 5% CO2 air mixture at 37° were used for experiments. Compounds of the invention which were tested were prepared at 5mM stock solutions in DMSO. Cells were grown to 60-80% confluency in 6 well trays. Compounds were added to give a concentration of 5x10⁻⁶ molar and cultures were simultaneously pulsed with 1 microCurie/mL ^3H thymidine for 20 hours. Cells were then harvested and tritium was counted using a liquid scintillation counter; results are the average of 8 wells per compound. In the control, when no compound is employed, there is 0% inhibition of thymidine uptake.
A dose response study of the compound from Example 35, using the just above described test was conducted. Concentrations of the compound from Example 35 ranging from 5x10⁻⁵ to 5x10⁻⁶ M in tenfold dilutions were conducted.

SMILES | IC50 [nM]
O=C1NC(=O)c2c1c1c3ccccc3n3c1c1c2c2ccccc2n1[C@@H]1O[C@H]3C[C@@H]1CO (relative stereo) [Example 35] | 1720

same assay, conditions: compound at 5x10⁻⁶ molar; 3H thymidine pulse 20 hours; average of 8 wells

SMILES | % Inhibition of Control [%]
O=C1NCc2c1c1c3ccccc3n3c1c1c2c2ccccc2n1C1CCC3O1 (racemic) [Example 23] | 78.8
O=C1NC(=O)c2c1c1c3ccccc3n3c1c1c2c2ccccc2n1[C@@H]1O[C@H]3C[C@@H]1CO (relative stereo) [Example 35] | 99.2
O=C1NC(=O)c2c1c1c3ccccc3n3c1c1c2c2ccccc2n1[C@H]1CC[C@@H]3O1 [Example 22] | 77.3

biological target: PKC; experiment: Mixed micellar protein kinase C (PKC) assay, in vitro inhibition of PKC; assay type: biochemical; conditions: partially purified rat brain PKC; histone III-S substrate; 23°C, 15 minutes; 2% DMSO
Experimental: The below listed Test Methods A and B were run in accordance with the procedures described in Bishop, W.R., Petrin, J., Wang, L., Ramesh, U., and Doll, R.J. (1990) Biochemical Pharmacology 40: No. 9, pp. 2129-2135 and Hannun et al, J. Biol. Chem. 260, 10039-10043, (1985), which are herein incorporated by reference.The following modifications were made in this procedure:
A. Protein Kinase C ("PKC") Protocol
Mixed micellular protein kinase C assays were conducted by the methods described in the two articles cited just above, (namely, Bishop et al, and Hannun et al), in a reaction mixture (0.25 mL total volume) containing: 20 mM Tris-HCl (pH 7.5); […] histone III-S; 10 mM MgCl2; 5 mM [g-32P]ATP (4 x 10^6 cpm/nmol); […] CaCl2; 32 mg/mL of phosphatidylserine; […] of 1-oleoyl-2-acetyl-glycerol and various concentrations of compounds of this invention added from a dimethyl-sulfoxide (DMSO) stock solution. The final concentration of DMSO in the reaction was 2% w/v. Reactions were started by addition of approximately […] of partially purified rat brain PKC and allowed to proceed at 23°C for 15 minutes. Reactions were terminated by collection of trichloroacetic acid-precipitated phosphorylated histone on GF/C filters using a Brandel Cell Harvester (Model No. M-24-R).

IC50 [nM] | SMILES
42 | Cc1ccc2c(c1)c1c3c(c4c5cc(C)ccc5n5c4c1n2[C@@H]1CC[C@H]5O1)C(=N)NC3=O (relative stereo) [Example 29]
7.5 | O=C1NC(=O)c2c1c1c3ccccc3n3c1c1c2c2ccccc2n1[C@@H]1O[C@H]3C[C@@H]1CO (relative stereo) [Example 35]
10 | O=C1NC(=O)c2c1c1c3ccccc3n3c1c1c2c2ccccc2n1[C@@H]1O[C@H]3C[C@H]1CO (relative stereo) [Example 36]
115 | NC(=O)[C@H]1C[C@@H]2O[C@H]1n1c3ccccc3c3c4c(c5c6ccccc6n2c5c31)C(=O)NC4=O (relative stereo) [Example 37]
1.4 | CO[C@H]1C[C@@H]2O[C@H]1n1c3ccccc3c3c4c(c5c6ccccc6n2c5c31)C(=O)NC4=O (relative stereo) [Example 38]
5 | CS(=O)(=O)OC[C@H]1C[C@@H]2O[C@H]1n1c3ccccc3c3c4c(c5c6ccccc6n2c5c31)C(=O)NC4=O (relative stereo) [Example 39]
15 | CS(=O)(=O)OC[C@@H]1C[C@@H]2O[C@H]1n1c3ccccc3c3c4c(c5c6ccccc6n2c5c31)C(=O)NC4=O (relative stereo) [Example 40]
7.5 | [N-]=[N+]=NC[C@H]1C[C@@H]2O[C@H]1n1c3ccccc3c3c4c(c5c6ccccc6n2c5c31)C(=O)NC4=O (relative stereo) [Example 41]
13 | NC[C@@H]1C[C@@H]2O[C@H]1n1c3ccccc3c3c4c(c5c6ccccc6n2c5c31)C(=O)NC4=O (relative stereo) [Example 45]
230 | O=C(NC[C@@H]1C[C@@H]2O[C@H]1n1c3ccccc3c3c4c(c5c6ccccc6n2c5c31)C(=O)NC4=O)c1ccccc1 (relative stereo) [Example 46]
7 | O=C1NC(=O)c2c1c1c3ccccc3n3c1c1c2c2ccccc2n1[C@@H]1O[C@H]3C[C@H]1Cn1ccnc1 (relative stereo) [Example 48]
4 | CN(C)C[C@@H]1C[C@@H]2O[C@H]1n1c3ccccc3c3c4c(c5c6ccccc6n2c5c31)C(=O)NC4=O (relative stereo) [Example 49]
23 | Cc1ccc2c(c1)c1c3c(c4c5cc(C)ccc5n5c4c1n2[C@@H]1C[C@@H](CO)[C@H]5O1)C(=O)NC3=O (relative stereo) [Example 57]
23 | Cc1ccc2c(c1)c1c3c(c4c5cc(C)ccc5n5c4c1n2[C@@H]1C[C@H](CO)[C@H]5O1)C(=O)NC3=O (relative stereo) [Example 58]
19 | CC(C)(C)OC(=O)CNC(=O)[C@@H]1C[C@@H]2O[C@H]1n1c3ccccc3c3c4c(c5c6ccccc6n2c5c31)C(=O)NC4=O (relative stereo) [Example 64]
0.5 | CNC(=O)[C@@H]1C[C@@H]2O[C@H]1n1c3ccccc3c3c4c(c5c6ccccc6n2c5c31)C(=O)NC4=O (relative stereo) [Example 65]
20 | O=C1NC(=O)c2c1c1c3ccccc3n3c1c1c2c2ccccc2n1[C@@H]1O[C@H]3C[C@H]1C(=O)NCc1ccccc1 (relative stereo) [Example 66]
0.6 | NC(=O)[C@@H]1C[C@@H]2O[C@H]1n1c3ccccc3c3c4c(c5c6ccccc6n2c5c31)C(=O)NC4=O (relative stereo) [Example 67]
1 | CN(C)C(=O)[C@@H]1C[C@@H]2O[C@H]1n1c3ccccc3c3c4c(c5c6ccccc6n2c5c31)C(=O)NC4=O (relative stereo) [Example 68]
0.8 | O=C(O)CNC(=O)[C@@H]1C[C@@H]2O[C@H]1n1c3ccccc3c3c4c(c5c6ccccc6n2c5c31)C(=O)NC4=O (relative stereo) [Example 69]
13 | S=C1NC(=S)c2c1c1c3ccccc3n3c1c1c2c2ccccc2n1[C@H]1CC[C@@H]3O1 [Example 25]
19 | O=C1NC(O)c2c1c1c3ccccc3n3c1c1c2c2ccccc2n1[C@H]1CC[C@@H]3O1 (stereo partly drawn) [Example 26]
18 | Cc1ccc2c(c1)c1c(Br)c(Br)c3c4cc(C)ccc4n4c3c1n2[C@@H]1CC[C@H]4O1 [Example 27]
58 | Cc1ccc2c(c1)c1c(C#N)c(C#N)c3c4cc(C)ccc4n4c3c1n2[C@@H]1CC[C@H]4O1 [Example 28]
50 | Cc1ccc2c(c1)c1c3c(c4c5cc(C)ccc5n5c4c1n2[C@@H]1CC[C@H]5O1)C(=O)NC3=O [Example 30]

SMILES | IC50 [nM]
O=C1NC(=O)c2c1c1c3ccccc3n3c1c1c2c2ccccc2n1[C@@H]1O[C@H]3C[C@H]1C(=O)O (relative stereo) [Example 63] | 20
